Assay results: US11414378B2, “Anti-fungals compounds targeting the synthesis of fungal sphingolipids” (THE RESEARCH FOUNDATION FOR THE STATE UNIVERSITY OF NEW YORK, priority 2017, dated 2022)
In brackets after ≈: the same amount, converted by molar mass.

Experiments:
C. neoformans = experiment: In vitro susceptibility (MIC80) assay; format: cell-based; conditions: Cryptococcus neoformans; lowest concentration that inhibited 80% of growth; YNB pH 7.0, HEPES, 37° C., 5% CO2
Experimental: MICs was determined following the methods of the Clinical and Laboratory Standards Institutes (CLSI) with modifications. Yeast Nitrogen Base (YNB) medium (pH 7.0, 0.2% glucose) buffered with HEPES was used for MIC studies. […] The compound was serially diluted from 16 to 0.03 μg/ml, in a 96-well plate. The inoculum was prepared as described in the CLSI protocol M27A3 guidelines. The plates were incubated at 37° C. with 5% CO2 for 24 to 72 h and the optical density was measure at 450 nm. The MICs was determined as the lowest concentration of the compound that inhibited 80% of growth compared to the control.

C. neoformans cells = experiment: In vitro killing activity (K100) assay; format: cell-based, Cryptococcus neoformans; conditions: minimum concentration that kills 100% of C. neoformans cells in 48 h; for MFC: Cryptococcus neoformans
Experimental: C. neoformans cells from a culture grown overnight were washed in PBS and resuspended in YNB buffered with HEPES at pH 7.4. The cells were counted, and 2×10^4 cells were incubated with different concentration of compounds in a final volume of 10 ml with a final concentration of 0.5% DMSO. The tubes were then incubated at 37° C. with 5% CO2 on a rotary shaker at 200 rpm. Aliquots were taken at time points and diluted, and […] were plated onto Yeast Extract-Peptone-Dextrose (YPD) plates. YPD plates were incubated in a 30° C. incubator and after 48 h, the numbers of CFU were counted and recorded.

MIC80 (C. neoformans) | SMILES | MFC (C. neoformans cells) | K100* (μg/mL) (C. neoformans cells)
0.5 µg/mL (≈ 1.19 µM) | O=C(N/N=C/c1cc(Br)ccc1O)c1ccc(OC(F)(F)F)cc1F [Compound A12, 2-Fluoro-4-trifluoromethoxy-N′-(5-bromo-2-hydroxybenzylidene)benzohydrazide] | 0.5 µg/mL (≈ 1.19 µM) | 
0.12 µg/mL (≈ 0.312 µM) | O=C(N/N=C/c1ccc(Br)cc1O)c1ccc(OC(F)F)cc1 [Compound A21, 4-Difluoromethoxy-N′-(4-bromo-2-hydroxybenzylidene)benzohydrazide] |  | 
0.12 µg/mL (≈ 0.297 µM) | O=C(N/N=C/c1cc(Br)ccc1O)c1ccc(Br)s1 [Compound H2, 5-Bromo-N′-(5-bromo-2-hydroxybenzylidene)thiophene-2-carbohydrazide] | > 0.5 µg/mL | 
0.5 µg/mL (≈ 1.21 µM) | Cc1ccc(O)c(/C=N/NC(=O)c2cc(Br)cc(Br)c2)c1 [Compound A41, 3,5-Dibromo-N′-(2-hydroxy-5-methylbenzylidene)benzohydrazide] | 1 µg/mL (≈ 2.43 µM) | 
1 µg/mL (≈ 2.1 µM) | O=C(N/N=C/c1ccc(Br)cc1O)c1cc(Br)cc(Br)c1 [Compound A39, 3,5-Dibromo-N′-(4-bromo-2-hydroxybenzylidene)benzohydrazide] | 1 µg/mL (≈ 2.1 µM) | 
0.5 µg/mL (≈ 1.29 µM) | O=C(N/N=C/c1ccc(Br)cc1O)c1cccc(C(F)(F)F)c1 [Compound A26, 3-Trifluoromethyl-N′-(4-bromo-2-hydroxybenzylidene)benzohydrazide] | 1 µg/mL (≈ 2.58 µM) | 
0.06 µg/mL (≈ 0.108 µM) | O=C(N/N=C/c1cc(Br)cc(Br)c1O)c1ccc(Br)c(Br)c1 [Compound A29, 3,4-Dibromo-N′-(3,5-dibromo-2-hydroxybenzylidene)benzohydrazide] | > 0.5 µg/mL | 
0.5 µg/mL (≈ 1.29 µM) | O=C(N/N=C/c1ccc(Br)cc1O)c1cc(Br)co1 [Compound H12, 4-Bromo-N′-(4-bromo-2-hydroxybenzylidene) furan-2-carbohydrazide] | > 2 µg/mL | 
0.12 µg/mL (≈ 0.312 µM) | O=C(N/N=C/c1cc(Br)ccc1O)c1cccc(OC(F)F)c1 [Compound A5, 3-Difluoromethoxy-N′-(5-bromo-2-hydroxybenzylidene)benzohydrazide] |  | Fungistatic
0.5 µg/mL (≈ 1.16 µM) | O=C(N/N=C/c1cc(Br)cc(Br)c1O)c1ccc(CF)cc1 [Compound A44, 4-Fluromethyl-N′-(3,5-dibromo-2-hydroxybenzylidene)benzohydrazide] | 0.5 µg/mL (≈ 1.16 µM) | 
0.12 µg/mL (≈ 0.297 µM) | O=C(N/N=C/c1ccc(Br)cc1O)c1ccc(Br)s1 [Compound H3, 5-Bromo-N′-(4-bromo-2-hydroxybenzylidene)thiophene-2-carbohydrazide] | > 0.5 µg/mL | 
0.5 µg/mL (≈ 1.23 µM) | O=C(N/N=C/c1cc(Br)ccc1O)c1ccc(C(F)(F)F)cc1F [Compound A8, 2-Fluoro-4-trifluoromethyl-N′-(5-bromo-2-hydroxybenzylidene)benzohydrazide] | 1 µg/mL (≈ 2.47 µM) | 
0.25 µg/mL (≈ 0.558 µM) | O=C(N/N=C/c1c(O)ccc2ccccc12)c1cc(Br)cc(Br)c1 [Compound A37, 3,5-Dibromo-N′-(2-hydroxy-1-naphthylidene)benzohydrazide] | 0.5 µg/mL (≈ 1.12 µM) | 
0.12 µg/mL (≈ 0.284 µM) | C#Cc1ccc(C(=O)N/N=C/c2cc(Br)cc(Br)c2O)cc1 [Compound A46, 4-Ethynyl-N′-(3,5-dibromo-2-hydroxybenzylidene)benzohydrazide] |  | Fungistatic
0.25 µg/mL (≈ 0.524 µM) | O=C(N/N=C/c1cc(Br)ccc1O)c1ccc(Br)c(Br)c1 [Compound A33, 3,4-Dibromo-N′-(5-bromo-2-hydroxybenzylidene)benzohydrazide] | 2 µg/mL (≈ 4.19 µM) | 
0.12 µg/mL (≈ 0.277 µM) | O=C(N/N=C/c1cc(Cl)ccc1O)c1cc(Br)cc(Br)c1 [Compound A40, 3,5-Dibromo-N′-(5-chloro-2-hydroxybenzylidene)benzohydrazide] | 1 µg/mL (≈ 2.31 µM) | 
1 µg/mL (≈ 2.14 µM) | O=C(N/N=C/c1cc(Cl)cc(Cl)c1O)c1cccc(Br)c1Br [Compound A43, 2,3-Dibromo-N′-(3,5-dichloro-2-hydroxybenzylidene)benzohydrazide] | 1 µg/mL (≈ 2.14 µM) | 
0.06 µg/mL (≈ 0.142 µM) | N#Cc1ccc(C(=O)N/N=C/c2cc(Br)cc(Br)c2O)cc1 [Compound A11, 4-Cyano-N′-(3,5-dibromo-2-hydroxybenzylidene)benzohydrazide] | > 1 µg/mL | 
0.06 µg/mL (≈ 0.12 µM) | O=C(N/N=C/c1cc(Br)cc(Br)c1O)c1ccc(OC(F)(F)F)cc1F [Compound A13, 2-Fluoro-4-trifluoromethoxy-N′-(3,5-dibromo-2-hydroxybenzylidene)-benzohydrazide] | 0.5 µg/mL (≈ 1 µM) | 
< 0.03 µg/mL | O=C(N/N=C/c1cc(Cl)cc(Cl)c1O)c1ccc(Br)c(Br)c1 [Compound A30, 3,4-Dibromo-N′-(3,5-dichloro-2-hydroxybenzylidene)benzohydrazide] | > 0.025 µg/mL | 

MIC80 (C. neoformans) | SMILES | MFC (C. neoformans cells) | K100* (μg/mL) (C. neoformans cells)
1 µg/mL (≈ 2.92 µM) | O=C(N/N=C/c1cccc(Cl)c1O)c1cccc(C(F)(F)F)c1 [Compound A24, 3-Trifluoromethyl-N′-(3-chloro-2-hydroxybenzylidene)benzohydrazide] | 4 µg/mL (≈ 11.7 µM) | 
0.25 µg/mL (≈ 0.522 µM) | O=C(N/N=C/c1cc(Br)cc(Br)c1O)c1ncc(Br)cn1 [Compound H1, 5-Bromo-N′-(3,5-dibromo-2-hydroxybenzylidene)pyrimidine-2-carbohydrazide] | > 2 µg/mL | 
0.25 µg/mL (≈ 0.519 µM) | O=C(N/N=C/c1cc(OC(F)(F)F)ccc1O)c1ccc(Br)cc1Br [Compound A3, 2,4-Dibromo-N′-(2-hydroxy-5-trifluoromethoxybenzylidene)benzohydrazide] | 2 µg/mL (≈ 4.15 µM) | 
0.12 µg/mL (≈ 0.291 µM) | Cc1ccc(O)c(/C=N/NC(=O)c2ccc(Br)c(Br)c2)c1 [Compound A34, 3,4-Dibromo-N′-(2-hydroxy-5-methylbenzylidene)benzohydrazide] | > 1 µg/mL | 
0.06 µg/mL (≈ 0.124 µM) | O=C(N/N=C/c1cc(Br)cc(Br)c1O)c1ccc(Br)s1 [Compound H4, 5-Bromo-N′-(3,5-dibromo-2-hydroxybenzylidene)thiophene-2-carbohydrazide] | > 0.25 µg/mL | 
0.06 µg/mL (≈ 0.126 µM) | O=C(N/N=C/c1cc(Br)ccc1O)c1cc(Br)cc(Br)c1 [Compound A36, 3,5-Dibromo-N′-(5-bromo-2-hydroxybenzylidene)benzohydrazide] | > 5 µg/mL | 
0.5 µg/mL (≈ 1.62 µM) | O=C(N/N=C/c1ccc(Br)cc1O)c1ccoc1 [Compound H14, N′-(4-bromo-2-hydroxybenzylidene) furan-3-carbohydrazide] | > 1 µg/mL | 
0.12 µg/mL (≈ 0.268 µM) | O=C(N/N=C/c1c(O)ccc2ccccc12)c1ccc(Br)c(Br)c1 [Compound A32, 3,4-Dibromo-N′-(2-hydroxy-1-naphthylidene)benzohydrazide] | > 1 µg/mL | 
0.12 µg/mL (≈ 0.248 µM) | O=C(N/N=C/c1cc(Br)cc(Br)c1O)c1ccc(C(F)(F)F)cc1F [Compound A9, 2-Fluoro-4-trifluoromethyl-N′-(3,5-dibromo-2-hydroxybenzylidene)benzohydrazide] | 0.5 µg/mL (≈ 1.03 µM) | 
0.12 µg/mL (≈ 0.259 µM) | O=C(N/N=C/c1cc(Br)cc(Br)c1O)c1cccc(OC(F)F)c1 [Compound A6, 3-Difluoromethoxy-N′-(3,5-dibromo-2-hydroxybenzylidene)benzohydrazide] | 0.5 µg/mL (≈ 1.08 µM) | 
0.5 µg/mL (≈ 1.23 µM) | O=C(N/N=C/c1cc(Br)cc(Br)c1O)C1CCOCC1 [Compound H15, N′-(3,5-dibromo-2-hydroxybenzylidene)tetrahydro-2H-pyran-4-carbohydrazide] | > 2 µg/mL | 
1 µg/mL (≈ 2.4 µM) | O=C(N/N=C/c1cc(F)ccc1O)c1ccc(Br)cc1Br [Compound A4, 2,4-Dibromo-N′-(5-fluoro-2-hydroxybenzylidene)benzohydrazide] | > 4 µg/mL | 
0.25 µg/mL (≈ 0.644 µM) | O=C(N/N=C/c1cc(Br)ccc1O)c1cc(Br)co1 [Compound H11, 4-Bromo-N′-(5-bromo-2-hydroxybenzylidene)furan-2-carbohydrazide] | > 1 µg/mL | 
0.06 µg/mL (≈ 0.126 µM) | O=C(N/N=C/c1ccc(Br)cc1O)c1ccc(Br)c(Br)c1 [Compound A35, 3,4-Dibromo-N′-(4-bromo-2-hydroxybenzylidene)benzohydrazide] | > 5 µg/mL | 
0.06 µg/mL (≈ 0.129 µM) | O=C(N/N=C/c1cc(Br)cc(Br)c1O)c1cc(Br)co1 [Compound H13, 4-bromo-N′-(3,5-dibromo-2-hydroxybenzylidene)furan-2-carbohydrazide] | > 0.25 µg/mL | 
1 µg/mL (≈ 2.97 µM) | O=C(N/N=C/c1cccc(Br)c1O)c1cccc(F)c1 [Compound A27, 3-Fluoro-N′-(3-bromo-2-hydroxybenzylidene)benzohydrazide] | 2 µg/mL (≈ 5.93 µM) | 
0.5 µg/mL (≈ 1.07 µM) | O=C(N/N=C/c1cc(Cl)cc(Cl)c1O)c1cc(Br)cc(Br)c1 [Compound A38, 3,5-Dibromo-N′-(3,5-dichloro-2-hydroxybenzylidene)benzohydrazide] | 0.5 µg/mL (≈ 1.07 µM) | 
0.12 µg/mL (≈ 0.259 µM) | O=C(N/N=C/c1cc(Br)cc(Br)c1O)c1ccc(OC(F)F)cc1 [Compound A23, 4-Difluoromethoxy-N′-(3,5-dibromo-2-hydroxybenzylidene)benzohydrazide] |  | 
0.25 µg/mL (≈ 0.649 µM) | O=C(N/N=C/c1cc(Br)ccc1O)c1ccc(OC(F)F)cc1 [Compound A22, 4-Difluoromethoxy-N′-(5-bromo-2-hydroxybenzylidene)benzohydrazide] |  | 
